According to patent US20180125992A1, “DRUG DELIVERY CONJUGATES OF TERTIARY AMINE […]” (ENDOCYTE, INC., priority 2016, published 2018):

Test system: KB cells
Test: In vitro FR specific activity of folate conjugates: 3H-thymidine incorporation in KB cells
Type: cell-based
Details: 2 h pulse at 37° C., chase up to 72 h, without excess folate
Procedure: KB cells were seeded in individual 24-well Falcon plates and allowed to form nearly confluent monolayers overnight in FFRPMI/HIFCS. Thirty minutes prior to the addition of folate-conjugate, spent medium was aspirated from all wells and replaced with either fresh FFRPMI or FFRPMI supplemented with 100 μM FA. Each well then received 1 mL of medium containing increasing concentrations of folate-conjugate (3 wells per sample). Cells were pulsed for 2 h at 37° C., rinsed 4 times with 0.5 mL of medium and then chased in 1 mL of fresh medium up to 72 h. Spent medium was aspirated from all wells and replaced with fresh medium containing 5 μCi/mL of ^3H-thymidine. Following a 2 h incubation at 37° C., cells were washed 3 times with 0.5 mL of PBS and then treated with 0.5 mL of ice-cold 5% trichloroacetic acid per well. After 15 min, the trichloroacetic acid was aspirated and the cells solubilized by the addition of 0.5 mL of 0.25 N sodium hydroxide for 15 min at room temperature. Four hundred and fifty μL of each solubilized sample were transferred to scintillation vials containing 3 mL of Ecolume scintillation cocktail and counted in a liquid scintillation counter. Final results were expressed as the percentage of ^3H-thymidine incorporation relative to untreated controls.

Structure (SMILES)	IC50
CCCC(=O)OCN(C(=O)[C@@H](NC(=O)[C@H]1CCCC[N+]1(C)CCSSC[C@H](NC(=O)[C@H](CC(=O)O)NC(=O)[C@H](CC(=O)O)NC(=O)[C@H](CCCNC(=N)N)NC(=O)[C@H](CC(=O)O)NC(=O)CC[C@H](NC(=O)c1ccc(NCc2cnc3nc(N)[nH]c(=O)c3n2)cc1)C(=O)O)C(=O)O)C(C)CC)[C@H](C[C@@H](OC(C)=O)c1nc(C(=O)N[C@@H](Cc2ccccc2)C[C@H](C)C(=O)OC)cs1)C(C)C (some centres unmarked) [Compound 1]	5 nM
CC/C=C/CN(C(=O)[C@@H](NC(=O)[C@H]1CCCC[N+]1(C)Cc1ccc(SSC[C@H](NC(=O)[C@H](CC(=O)O)NC(=O)[C@H](CC(=O)O)NC(=O)[C@H](CCCNC(=N)N)NC(=O)[C@H](CC(=O)O)NC(=O)CC[C@H](NC(=O)c2ccc(NCc3cnc4nc(N)[nH]c(=O)c4n3)cc2)C(=O)O)C(=O)O)cc1)C(C)CC)[C@H](C[C@@H](OCC)c1nc(C(=O)N[C@@H](Cc2ccc(O)cc2)C[C@H](C)C(=O)O)cs1)C(C)C (some centres unmarked) [Compound 2]	7 nM
